Source: US7601850B2, “Phenyl-thiophene type vitamin D receptor modulators” (Eli Lilly and Company, priority 2002, dated 2009)
Where two headings read alike, the source gives them in different places.

Tests used:
[1] = Mouse hypercalcemia assay (six day, serum ionized calcium); format: in vivo
Method: 5. The Mouse Hypercalcemia test is described in the “Assay” section of the Description, infra.
4. The Mouse Hypercalcemia Assay
The Mouse Hypercalcemia Assay is a six day hypercalcemia test for toxicity and selectivity. Acceptable test results are levels greater than 300 μg/kg/day. Preferred assay results are levels greater than 1000 μg/kg/day.
(4) Materials and Method for The Mouse Hypercalcemia Assay:
Weanling, virus-antibody-free, five to six weeks old female DBF mice (Harlan, Indianapolis, Ind.) are used for all the studies. Animals are allowed to acclimate to local vivarium conditions for 2 days. […] The animals then are divided into groups with 4-5 mice per group. Different doses of test compounds prepared in 10% Ethanol and 90% sesame oil are administered to mice orally via gavage for 6 days. 1α-25(OH)2D3 0.5 μg/kg/d was also given to one group of mice as the positive control. Serum ionized calcium is evaluated at 6 hours after the last dosing under isoflurane anesthesia by Ciba-Corning Ca++/PH Analyzer, (Model 634, Chiron Diagnostics Corp., East Walpole, Mass.). Raw data of group differences is assessed by analysis of variance (ANOVA) using Fisher's protected least significant difference (PLSD) where the significance level was P<0.05.

[2] = system: rat osteocalcin promoter; assay: OCN (osteocalcin) promoter assay in RG-15 (ROS 17/2.8) cells; format: cell-based
How it was run: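 Rat osteoblast-like RG-15 (ROS 17/2.8) cells stably carry the rat osteocalcin promoter fused to luciferase. They were treated with compounds for 48 h in medium with 2% FBS and 0.01% DMSO. EC50 was derived from luciferase activity in cell lysates.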

[3] = system: KERtr cells; assay: Keratinocyte proliferation assay (BrdU incorporation); format: cell-based; details: Homo sapiens, Keratinocyte, 72 h, KERtr human skin keratinocytes, 72 hr treatment, read-out: Kera. Prolif. IC50
Method: 6. The keratinocyte proliferation assay is described in the “Assay” section of the Description, infra.
5. The Keratinocyte Proliferation Assay
This Assay is indicative for the treatment of psoriasis.
(5) The Keratinocyte Proliferation Assay:
KERtr cells (Human skin keratinocyte transformed with a retrovirus vector, obtained from ATCC) were plated in 96-well flat-bottomed plates (3000 cells/well) in 100 µl keratinocyte serum free medium supplemented with bovine pituitary extract in the absence of EGF (Life Technologies, Rockville, Md.) and incubated at 37° C. for two days. The cells were treated with various concentrations of VDR ligands (ten-fold serial dilution from 10,000 nM to 0.1 nM in triplicate), dissolved in 100 µl keratinocyte serum free medium supplemented with bovine pituitary extract in the absence of EGF and incubated at 37° C. for 72 hr. […] Potency values (IC50) values were determined as the concentration (nM) of compound that elicited a half-maximal response.

| Structure (SMILES) | Mouse Hypercal [1] | EC50 ([2]; Rattus norvegicus) | EC50 [2] | IC50 [3] | Mouse Hypercal μg/Kg/d [1] |
| --- | --- | --- | --- | --- | --- |
| CCC(CC)(c1ccc(OCC(O)C(C)(C)C)c(C)c1)c1cc(C)c(C(=O)Nc2nnn[nH]2)s1 (single isomer, unassigned) [Ex. 36, 3′-[4-(2-hydroxy-3,3-dimethylbutoxy)-3-methylphenyl]-3′-[5-(tetrazol-5-yl-aminocarbonyl)-4-methylthiophen-2-yl]pentane] | 2000 µg/kg/day | – | 67.9 nM | – | – |
| CCC(CC)(c1ccc(OCC(O)C(C)(C)C)c(C)c1)c1cc(C)c(C(=O)NCCS(C)(=O)=O)s1 (single isomer, unassigned) [Ex. 39, 5-[1-ethyl-1-[4-(2-hydroxy-3,3-dimethyl-butoxy)-3-methylphenyl]propyl]-3-methylthiophene-2-carboxylic acid (2-methylsulfonyl-ethyl) amide] | – | – | 300 nM | 367 nM | – |
| CCC(CC)(c1ccc(OCC(O)C(C)(C)C)c(C)c1)c1cc(C)c(C(=O)N[C@H](C)C(=O)OC)s1 (single isomer, unassigned) [Ex. 66, D-2-[(5-{1-Ethyl-1-[4-(2-hydroxy-3,3-dimethyl-butoxy)-3-methyl-phenyl]-propyl}-3-methyl-thiophene-2-carbonyl)-amino]-propionic acid methyl ester] | – | – | 28.4 nM | 277 nM | – |
| CCC(CC)(c1ccc(OCC(O)C(C)(C)C)c(C)c1)c1ccc(C(=O)O)s1 (single isomer, unassigned) [Ex. 89, 3′-[4-(2-hydroxy-3,3-dimethylbutoxy)-3-methylphenyl]-3′-[5-carboxy-thiophen-2-yl]pentane] | – | 314 nM | – | 105 nM | – |
| CCCc1cc(C(CC)(CC)c2ccc(C(=O)O)s2)ccc1OCC(O)C(C)(C)C (single isomer, unassigned) [Ex. 94, 3′-[4-(2-hydroxy-3,3-dimethylbutoxy)-3-n-propylphenyl]-3′-[5-carboxy-thiophen-2-yl]pentane] | 1000 µg/kg/day | – | 4.05 nM | – | – |
| CCC(CC)(c1ccc(OCC(O)CO)c(C)c1)c1ccc(OCC(O)C(C)(C)C)c(C)c1 (stereo not shown) [BB, 3-(4-{1-Ethyl-1-[4-(2-hydroxy-3,3-dimethyl-butoxy)-3-methyl-phenyl]-10 propyl}-2-methyl-phenoxy)-propane-1,2-diol, reference compound] | – | – | – | – | >=20 μg/Kg/d |
| CCC(CC)(c1ccc(OCC(=O)C(C)(C)C)c(C)c1)c1ccc(OC[C@H](O)C(C)(C)C)c(C)c1 [EE, reference compound] | 1000 µg/kg/day | – | – | – | – |
| CCC(CC)(c1ccc(OCC(O)C(C)(C)C)c(C)c1)c1cc(C)c(C(=O)N(C)C)s1 (stereo not shown) [Ex. 4] | – | 147 nM | – | 122 nM | – |
| CCC(CC)(c1ccc(OCC(O)C(C)(C)C)c(C)c1)c1cc(C)c(CS(C)(=O)=O)s1 (stereo not shown) [Ex. 10] | – | 51.3 nM | – | 25 nM | – |
| CCC(CC)(c1ccc(OC[S+](C)[O-])c(C)c1)c1cc(C)c(CC[C@@H](O)C(C)(C)C)s1 (stereo partly shown) [Ex. 16] | – | 31 nM | – | 257 nM | – |
| CCC(CC)(c1ccc(OS(C)(=O)=O)c(C)c1)c1cc(C)c(CC[C@@H](O)C(C)(C)C)s1 [Ex. 18] | – | 11.2 nM | – | 24.5 nM | – |
| CCC(CC)(c1ccc(CCC(=O)O)c(C)c1)c1cc(C)c(CCC(O)C(C)(C)C)s1 (stereo not shown) [Ex. 29] | – | 8.65 nM | – | 4.6 nM | – |
| CCC(CC)(c1ccc(OCC(O)C(C)(C)C)c(C)c1)c1cc(C)c(COCC(=O)O)s1 (stereo not shown) [Ex. 124, 2-(5-{1-ethyl-1-[4-(2-hydroxy-3,3-dimethyl-butoxy)-3-methyl-phenyl]-propyl}-3-methyl-thiophen-2-yl-methoxy)acetic acid] | – | 101 nM | – | 216 nM | – |
| CCC(CC)(c1ccc(OCC(O)C(C)(C)C)c(C)c1)c1cc(C)c(S(=O)(=O)NC(C)=O)s1 (stereo not shown) [Ex. 158, 5-{1-Ethyl-1-[4-(2-hydroxy-3,3-dimethyl-butoxy)-3-methyl-phenyl]-propyl}-3-methyl-thiophene-2-sulfonic acid acetyl-amide] | – | 85 nM | – | 500 nM | – |
| CCC(=O)NS(=O)(=O)c1sc(C(CC)(CC)c2ccc(OCC(O)C(C)(C)C)c(C)c2)cc1C (stereo not shown) [Ex. 159, 5-{1-Ethyl-1-[4-(2-hydroxy-3,3-dimethyl-butoxy)-3-methyl-phenyl]-propyl}-3-methyl-thiophene-2-sulfonic acid propionyl-amide] | – | 89.7 nM | – | 234 nM | – |
| CCC(CC)(c1ccc(OCC(=O)C(C)(C)C)c(C)c1)c1cc(C)c(S(=O)(=O)NC(C)=O)s1 [Ex. 160, 5-{1-[4-(3,3-Dimethyl-2-oxo-butoxy)-3-methyl-phenyl]-1-ethyl-propyl}-3-methyl-thiophene-2-sulfonic acid acetyl-amide] | – | 40.3 nM | – | 1100 nM | – |

The next lines start with results.

| Mouse Hypercal [1] | EC50 ([2]; Rattus norvegicus) | Structure (SMILES) | EC50 [2] | IC50 [3] | Mouse Hypercal μg/Kg/d [1] |
| --- | --- | --- | --- | --- | --- |
| >9000 µg/kg/day | – | CCC(CC)(c1ccc(OCC(=O)O)c(C)c1)c1cc(C)c(CCC(O)C(C)(C)C)s1 (single isomer, unassigned) [Ex. 33A, 3′-[5-(3-hydroxy-4,4-dimethylpentyl)-4-methylthiophen-2-yl]-3′-[4-(carboxylmethoxy)-3-methylphenyl]pentane] | 43.5 nM | – | – |
| 3000 µg/kg/day | – | CCC(CC)(c1ccc(OCC(=O)Nc2nnn[nH]2)c(C)c1)c1cc(C)c(CCC(O)C(C)(C)C)s1 (single isomer, unassigned) [Ex. 34, 3′-[5-(3-hydroxy-4,4-dimethylpentyl)-4-methylthiophen-2-yl]-3-[4-(tetrazol-5-yl-aminocarbonylmethoxy)-3-methylphenyl]pentane] | 96.8 nM | – | – |
| 1000 µg/kg/day | 19.7 nM | CCC(CC)(c1ccc(OCC(O)C(C)(C)C)c(C)c1)c1cc(C)c(C(=O)N(C)OC)s1 (single isomer, unassigned) [Ex. 43, 5-{1-Ethyl-1-[4-(2-hydroxy-3,3-dimethyl-butyoxy)-3-methyl-phenyl]-propyl}-3methyl-thiophene-2-carboxylic acid methoxy-methyl-amide] | – | – | – |
| 1000 µg/kg/day | – | CCC(CC)(c1ccc(OCC(O)C(C)(C)C)c(C)c1)c1cc(C)c(C(=O)N(C)OC)s1 (single isomer, unassigned) [Ex. 44, 5-{1-Ethyl-1-[4-(2-hydroxy-3,3-dimethyl-butyoxy)-3-methyl-phenyl]-propyl}-3methyl-thiophene-2-carboxylic acid methoxy-methyl-amide] | 30.4 nM | – | – |
| – | 222 nM | CCC(CC)(c1ccc(OCC(=O)C(C)(C)C)c(C)c1)c1cc(C)c(S(=O)(=O)N(C)CCC(=O)O)s1 [Ex. 145] | – | 702 nM | – |
| – | 18.4 nM | CCc1cc(C(CC)(CC)c2ccc(S(=O)(=O)NCC(=O)O)s2)ccc1OCC(O)C(C)(C)C (stereo not shown) [Ex. 155] | – | 788 nM | – |
| – | 46 nM | CCC(CC)(c1ccc(CCC(O)C(C)(C)C)c(C)c1)c1cc(C)c(C(=O)NCC(=O)O)s1 (stereo not shown) [Ex. 177, [(5-{1-Ethyl-1-[4-(3-hydroxy-4,4-dimethyl-pentyl)-3-methyl-phenyl]-propyl}-3-methyl-thiophene-2-carbonyl)-amino]-acetic acid] | – | 81.3 nM | – |
| – | 27.9 nM | CCC(CC)(c1ccc(CCC(O)C(C)(C)C)c(C)c1)c1cc(C)c(S(=O)(=O)NCC(=O)O)s1 (stereo not shown) [Ex. 179, (5-{1-Ethyl-1-[4-(3-hydroxy-4,4-dimethyl-pentyl)-3-methyl-phenyl]-propyl}-3-methyl-thiophene-2-sulfonylamino)-acetic acid] | – | 221 nM | – |
